Assays:
Assay type in all cases: functional, cell-based
SMMC-7721 = assay: Antiproliferative activity against human SMMC7721 cells after 48 hrs by MTT assay; settings: SMMC-7721, 48 h
EC9706 = assay: Antiproliferative activity against human EC9706 cells after 48 hrs by MTT assay; settings: EC9706, 48 h
MCF7 = assay: Antiproliferative activity against human MCF7 cells after 48 hrs by MTT assay; settings: MCF7, 48 h
PC-3 = assay: Antiproliferative activity against human PC3 cells after 48 hrs by MTT assay; settings: PC-3, 48 h
MGC-803 = assay: Antiproliferative activity against human MGC803 cells after 48 hrs by MTT assay; settings: MGC-803, 48 h
ECa-109 cell line = assay: Antiproliferative activity against human ECA109 cells after 48 hrs by MTT assay; settings: ECa-109, 48 h
HGC-27 = assay: Antiproliferative activity against human HGC27 cells after 48 hrs by MTT assay; settings: HGC-27, 48 h

C=C1C(=O)[C@]23[C@H](O)[C@H]1C[C@H](O)[C@H]2[C@]12CCCC(C)(C)[C@H]1C[C@H]3O[C@H]2O
IC50 (SMMC-7721): 20.2 µM | IC50 (EC9706): 22.5 µM | IC50 (MCF7): 22.9 µM | IC50 (PC-3): 15 µM | IC50 (MGC-803): 14.7 µM | IC50 (ECa-109 cell line): 20.7 µM

C=C1C(=O)[C@]23[C@H](O)[C@H]1C[C@H](O)[C@H]2[C@]12CCCC(C)(C)[C@H]1C[C@H]3O[C@@H]2OCCc1cn(Cc2ccc([N+](=O)[O-])cc2)nn1
IC50 (SMMC-7721): 3.8 µM | IC50 (EC9706): 7.78 µM | IC50 (MCF7): 6.45 µM | IC50 (ECa-109 cell line): 4.13 µM

C=C1C(=O)[C@]23[C@H](O)[C@H]1C[C@H](O)[C@H]2[C@]12CCCC(C)(C)[C@H]1C[C@H]3O[C@@H]2OCCc1cn(Cc2ccc(F)cc2)nn1
IC50 (SMMC-7721): 5.88 µM | IC50 (EC9706): 4.5 µM | IC50 (MCF7): 6.62 µM | IC50 (ECa-109 cell line): 3.68 µM

C#CCO[C@H]1O[C@@H]2C[C@@H]3C(C)(C)CCC[C@]13[C@@H]1[C@@H](O)C[C@H]3C(=C)C(=O)[C@@]21[C@@H]3O
IC50 (SMMC-7721): 15.3 µM | IC50 (EC9706): 7.87 µM | IC50 (MCF7): 14.6 µM | IC50 (PC-3): 3.92 µM | IC50 (MGC-803): 3.77 µM | IC50 (ECa-109 cell line): 10.8 µM

C=C1C(=O)[C@]23[C@H](O)[C@H]1C[C@H](O)[C@H]2[C@]12CCCC(C)(C)[C@H]1C[C@H]3OC2OCCN=[N+]=[N-] (single isomer, unassigned)
IC50 (SMMC-7721): 10 µM | IC50 (EC9706): 8.71 µM | IC50 (MCF7): 1.6 µM | IC50 (PC-3): 12.3 µM | IC50 (MGC-803): 11.9 µM | IC50 (ECa-109 cell line): 6.08 µM

C=C1C(=O)[C@]23[C@H](O)[C@H]1C[C@H](O)[C@H]2[C@]12CCCC(C)(C)[C@H]1C[C@H]3O[C@@H]2OCCc1cn(Cc2ccc(C)cc2)nn1
IC50 (SMMC-7721): 5.68 µM | IC50 (EC9706): 6.1 µM | IC50 (MCF7): 7.86 µM | IC50 (PC-3): 4.9 µM | IC50 (MGC-803): 3.89 µM | IC50 (ECa-109 cell line): 2.12 µM

C=C1C(=O)[C@]23[C@H](O)[C@H]1CC[C@H]2[C@@]12CO[C@]3(O)[C@@H](O)[C@@H]1C(C)(C)CC[C@@H]2O [ORIDONIN]
IC50 (HGC-27): 32 µM | IC50 (SMMC-7721): 54 µM | IC50 (EC9706): 38.4 µM | IC50 (MCF7): 74.2 µM | IC50 (PC-3): 27.6 µM | IC50 (MGC-803): 33.1 µM | IC50 (ECa-109 cell line): 31.8 µM

C=C1C(=O)[C@]23[C@H](O)[C@H]1C[C@H](O)[C@H]2[C@]12CCCC(C)(C)[C@H]1C[C@H]3O[C@@H]2OCCn1cc(CCCC)nn1
IC50 (SMMC-7721): 11 µM | IC50 (EC9706): 8.29 µM | IC50 (MCF7): 13.4 µM | IC50 (ECa-109 cell line): 4.45 µM

C=C1C(=O)[C@]23[C@H](O)[C@H]1C[C@H](O)[C@H]2[C@]12CCCC(C)(C)[C@H]1C[C@H]3O[C@@H]2OCCc1cn(Cc2ccccc2)nn1
IC50 (SMMC-7721): 5.79 µM | IC50 (EC9706): 7.54 µM | IC50 (MCF7): 9.45 µM | IC50 (ECa-109 cell line): 3.51 µM

C=C1C(=O)[C@]23[C@H](O)[C@H]1C[C@H](O)[C@H]2[C@]12CCCC(C)(C)[C@H]1C[C@H]3O[C@@H]2OCCc1cn(Cc2cc(OC)c(OC)c(OC)c2)nn1
IC50 (SMMC-7721): 9.03 µM | IC50 (EC9706): 9.5 µM | IC50 (MCF7): 8.79 µM | IC50 (ECa-109 cell line): 4.51 µM

C=C1C(=O)[C@]23[C@H](O)[C@H]1C[C@H](O)[C@H]2[C@]12CCCC(C)(C)[C@H]1C[C@H]3O[C@@H]2OCCc1cn(Cc2ccc(Cl)c(Cl)c2)nn1
IC50 (SMMC-7721): 3.76 µM | IC50 (EC9706): 4.21 µM | IC50 (MCF7): 6.85 µM | IC50 (ECa-109 cell line): 2.58 µM

C=C1C(=O)[C@]23[C@H](O)[C@H]1C[C@H](O)[C@H]2[C@]12CCCC(C)(C)[C@H]1C[C@H]3O[C@@H]2OCCc1cn(Cc2ccc(OC)cc2)nn1
IC50 (SMMC-7721): 4.81 µM | IC50 (EC9706): 4.67 µM | IC50 (MCF7): 7.81 µM | IC50 (PC-3): 4.95 µM | IC50 (MGC-803): 4.79 µM | IC50 (ECa-109 cell line): 2.57 µM

C=C1C(=O)[C@]23[C@H](O)[C@H]1C[C@H](O)[C@H]2[C@]12CCCC(C)(C)[C@H]1C[C@H]3O[C@@H]2OCCn1cc(-c2ccccc2)nn1
IC50 (SMMC-7721): 6.07 µM | IC50 (EC9706): 5.32 µM | IC50 (MCF7): 8.95 µM | IC50 (PC-3): 11.2 µM | IC50 (MGC-803): 9.62 µM | IC50 (ECa-109 cell line): 4.26 µM

C=C1C(=O)[C@]23[C@H](O)[C@H]1C[C@H](O)[C@H]2[C@]12CCCC(C)(C)[C@H]1C[C@H]3O[C@@H]2OCCn1cc(C2CC2)nn1
IC50 (SMMC-7721): 9.66 µM | IC50 (EC9706): 11.4 µM | IC50 (MCF7): 11 µM | IC50 (PC-3): 3.79 µM | IC50 (MGC-803): 4.58 µM | IC50 (ECa-109 cell line): 4.3 µM
